From article PMC8682738, “Constrained peptides mimic a viral suppressor of RNA silencing” (Nucleic Acids Research, 2021) come the findings set out here.

One data set concerns the target proteinase K (Parengyodontium album, UniProt P06873). Kind of data set: Protease stability assay. The conditions noted are these: proteinase K 10 μg·ml^−1, fluorescein-labeled peptide 50 μM, 10 mM Tris pH 8.0, 150 mM NaCl, room temperature, HPLC absorbance 210 nm, exponential decay fit. The format is in vitro ADME.
A short description of data set [1]: CD spectroscopy, secondary structure content. The format is physicochemical. To be noted: fluorescein-labeled peptide 75 μM, 10 mM sodium phosphate pH 7.4, CDNN/PEPFIT.

Positions of bridges follow the written chain, without caps; N, C: chain ends. Non-standard residues stand in square brackets, D forms with d. Residues, ends and D or L forms follow the SMILES beside them. *: point of attachment. FITC = O=C1OC2(c3ccc(O)cc3Oc3cc(O)ccc32)c2ccc(NC(=S)*)cc21; R8 = C=CCCCCCC[C@@](C)(N)C(=O)O; S5 = C=CCCC[C@](C)(N)C(=O)O; AEEA = NCCOCCOCC(=O)O

proteinase K, sequence (P06873 106-384): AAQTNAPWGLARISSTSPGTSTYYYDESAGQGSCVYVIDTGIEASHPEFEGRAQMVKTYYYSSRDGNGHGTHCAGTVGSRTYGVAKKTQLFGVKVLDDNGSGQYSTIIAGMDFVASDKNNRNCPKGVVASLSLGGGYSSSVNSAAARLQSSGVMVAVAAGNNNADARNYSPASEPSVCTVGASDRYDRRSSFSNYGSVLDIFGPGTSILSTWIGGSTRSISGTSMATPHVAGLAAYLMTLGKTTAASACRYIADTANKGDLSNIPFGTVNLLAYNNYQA

On to `CC(C)C[C@H](NC(=O)[C@H](CCC(=O)O)NC(=O)[C@H](CO)NC(=O)[C@H](CCCNC(=N)N)NC(=O)[C@H](CCCNC(=N)N)NC(=O)[C@H](CCC(N)=O)NC(=O)[C@H](CCC(=O)O)NC(=O)[C@H](CO)NC(=O)[C@@H]1CCCN1C(=O)[C@H](CO)NC(=O)[C@H](CCCCN)NC(=O)[C@H](Cc1c[nH]cn1)NC(=O)CNC(=O)[C@H](CCCNC(=N)N)NC(=O)[C@H](CCC(=O)O)NC(=O)[C@H](CCCCN)NC(=O)[C@H](CCCNC(=N)N)NC(=O)[C@H](CC(N)=O)NC(=O)[C@]1(C)CCCC=CCCCCCC[C@@](C)(NC(=O)[C@H](CCC(N)=O)NC(=O)[C@H](CCCCN)NC(=O)[C@H](CCCCN)NC(=O)COCCOCCNC(=S)Nc2ccc3c(c2)C(=O)OC32c3ccc(O)cc3Oc3cc(O)ccc32)C(=O)N[C@@H](CCC(N)=O)C(=O)N[C@@H](CCCNC(=N)N)C(=O)N[C@@H](CCCCN)C(=O)N[C@@H](CCCNC(=N)N)C(=O)N[C@@H](Cc2c[nH]cn2)C(=O)N[C@@H](CCCCN)C(=O)N1)C(=O)N[C@@H](Cc1c[nH]c2ccccc12)C(=O)N[C@@H](Cc1c[nH]cn1)C(=O)N[C@@H](C)C(=O)N[C@@H](CCCNC(=N)N)C(N)=O` [A1] ({FITC-AEEA}-KKQ[R8]QRKRHK[S5]NRKERGHKSPSEQRRSELWHAR-NH2; staple 4-11), for which the half-life t1/2 was 3 min. The “Half-life (t1/2)” value on proteinase K was 2.4 min. Further, in data set [1], the Random coil turned out to be 51.4%, the β-Sheet is recorded as 2.9% and the β-Turn is 9.6%. In data set [1] (unbound), the “Helix (α-helicity)” value is 39.1%.
